Results taken from patent US20250154112A1, “A PREPARATION OF QUINAZOLINEDIONES AND USE THEREOF” (COUNCIL OF SCIENTIFIC AND INDUSTRIAL RESEARCH AN INDIAN …, priority 2021, published 2025).

Legend:
COP1 = target: T1, COP1 (Homo sapiens, UniProt Q8NHY2); test: Western blot of COP1 level in HepG2 cells after compound treatment; format: cell-based; details: 5 μM, 24 hours
T1 construct: endogenous in cells; host or cells: HepG2
Experimental: HepG2 cells were treated with the compounds 5, 8, 11, 59, 62, 65, 91, 94 at 5 μM for 24 hours. After removing media from the cells, the wells were washed with 1×PBS twice to remove any remnant media. Cells were then lysed in lysis buffer containing 50 mM Tris-HCl (pH 7.4), 100 mM NaCl, 1 mM EDTA, 1 mM EGTA, 1% Triton X-100 and protease inhibitor cocktail 1 (Millipore, Billierica, MA, USA). Following centrifugation at 20,000 g for 20 minutes, the protein solution was extracted from the cells. Protein was estimated using Bradford assay. Bradford's reagent (BioRad) was diluted in 1:4 ratio in double distilled water. 2 μl of protein sample was added to 100 μl of the reagent and absorbance was measured at 595 nm. 30 μg of protein was diluted in lysis buffer. 1X loading buffer diluted from 5X stock containing 250 mM Tris-HCl (pH 6.8), 10% SDS, 50% glycerol, 0.1% bromophenol Blue and 10% β-mercaptoethanol was added. The protein samples were then heated at 95° C. for 10 minutes, cooled and centrifuged at 12,000 g for 2 minutes prior to loading.
For western blotting, the proteins were resolved in 10% SDS PAGE (discontinuous buffer system). 1X running buffer containing SDS, Tris Base and Glycine was used to run the gel at 80V for approximately 2 hours. Transfer was done using PVDF membrane (Millipore) having pore size of 0.45 μm. 1X transfer buffer containing Tris-Base, Glycine and 20% methanol was used for wet transfer. Transfer was done at 90V for 3 hours. Following transfer, the PVDF membrane containing the proteins were washed in 1×PBST comprising of 1×PBS and 1% Tween 20 (Sigma Aldrich). The membrane was then incubated for 1 hour at room temperature in 5% skim milk powder to block the non-specific sites. Following multiple washes with 1×PBST to wash away any remaining blocking buffer, the required primary antibody (COP1 [BethylLaboraties], ATGL [Cell Signalling Technology] or Actin[Cell Signalling Technology]) prepared with 1×PBST, 1% Bovine Serum Albumin and 0.04% Sodium Azide was added to the membrane and incubated overnight at 4° C. The next day, the membrane was again washed multiple times with 1×PBST to remove any unbound primary antibody. The membrane was then incubated with goat anti-rabbit secondary antibody (Genei) for 1 hour at room temperature and washed again for multiple times with 1×PBST. The membrane was then developed using Clarity™ ECL Western Blotting Substrate (BioRad) and viewed in ChemiDoc (BioRad).

ATGL = test: Fold change in ATGL by densitometric analysis; format: cell-based; details: fold change of ATGL with respect to control, normalized with actin
Experimental: Densitimetric analysis was performed by image J to calculate the fold change of ATGL with respect to control. The values were normalized with actin.

[1] = Lipophilicity assay (octanol/buffer Log D); format: physicochemical; details: pH 7.4, n-octanol/sodium phosphate buffer
Experimental: 1.56 g NaH2PO4·2H2O was dissolved in 0.5 L water in a 1 L beaker. After adjusting pH to 7.4 using NaOH solution, the volume was made up to 1 L. Equal volumes of sodium phosphate buffer (10 mM, pH 7.4) and n-octanol were added to a separation funnel and mixed thoroughly by shaking and inverting the funnel several times. The two layers were allowed to separate for overnight and then dispensed in two separate glass bottles. 10 mM stock solution was prepared in 100% DMSO and stored at 4° C. 495 μL of organic phase (1-octanol) was added to each well of a 2 mL deep well plate, followed by 495 μL of buffer and 10 μL of test substance was added. The plate was incubated for 3 hrs at room temperature on a plate shaker at 500 rpm. After incubation, the samples were allowed to equilibrate for 20 min and then centrifuged at 4000 rpm for 30 min for complete phase separation and analysed by LC-UV. Log D=Log (area of octanol/area of buffer)

Plasma stability assay = format: in vitro ADME; details: 1 μM, 37° C.
Experimental: 1 mM Stock of test compound was prepared from 10 mM initial stock solution of compounds by diluting 10 μL of 10 mM stock with 90 μL of DMSO. Then 10 μL of 1 mM stock was diluted with 90 μL of DMSO to give 100 μM concentration. The frozen plasma was thawed at room temperature and centrifuged at 1400 rpm at 4° C., for 15 minutes. Approximately 90% of the clear supernatant fraction was transferred to a separate tube and was used for the assay. Final working stock of 1 μM was prepared by diluting 3 μL of 100 μM with 297 μL of plasma. Plasma containing the test compound was incubated for 120 min at 37° C. in shaker with 500 rpm. 50 μL of aliquot of sample at 0, 15, 30, 60 and 120 minutes were precipitated with 150 μL of acetonitrile containing internal standard and centrifuged at 4000 rpm at 4° C. for 20 minutes. 120 μL of supernatant was diluted with 120 μL of water and analysed by LC-MS/MS.

[2] = Metabolic stability using human liver microsomes (HLM); format: in vitro ADME
Experimental: 1 mM stock solution of test compound was prepared in DMSO and diluted with Acetonitrile:Water (1:1) to get a 100 μM working concentration. 100 mL of Milli Q water was added to K2HPO4 (1.398 g) and KH2PO4 (0.27 g) to get final pH 7.4 solution of potassium phosphate buffer. […] The above mixture was pre incubated for 15 minutes at 37° C. After pre incubation, 32.5 μL of the mixture was added to 17.5 μL of buffer, this was incubated for 60 minutes at 37° C. [60 min Without Cofactor (NADPH)]. 16.25 μL of the pre incubated mixture and 8.75 μL of cofactor was added to 150 μL of acetonitrile containing internal standard [0 min Sample]. 62 μL of cofactor was added to remaining pre incubation mixture [Incubation mixture]. 25 μL of incubation mixture at 0, 5, 15, 30, 60 min and 60 min without cofactor were precipitated with 150 μL of acetonitrile containing internal standard, vortexed and centrifuged at 4000 rpm at 4° C. for 20 minutes. 120 μL of supernatant was diluted with 120 μL of water and analyzed by LC-MS/MS [sample preparation].

T1 sequence (Q8NHY2 whole entry): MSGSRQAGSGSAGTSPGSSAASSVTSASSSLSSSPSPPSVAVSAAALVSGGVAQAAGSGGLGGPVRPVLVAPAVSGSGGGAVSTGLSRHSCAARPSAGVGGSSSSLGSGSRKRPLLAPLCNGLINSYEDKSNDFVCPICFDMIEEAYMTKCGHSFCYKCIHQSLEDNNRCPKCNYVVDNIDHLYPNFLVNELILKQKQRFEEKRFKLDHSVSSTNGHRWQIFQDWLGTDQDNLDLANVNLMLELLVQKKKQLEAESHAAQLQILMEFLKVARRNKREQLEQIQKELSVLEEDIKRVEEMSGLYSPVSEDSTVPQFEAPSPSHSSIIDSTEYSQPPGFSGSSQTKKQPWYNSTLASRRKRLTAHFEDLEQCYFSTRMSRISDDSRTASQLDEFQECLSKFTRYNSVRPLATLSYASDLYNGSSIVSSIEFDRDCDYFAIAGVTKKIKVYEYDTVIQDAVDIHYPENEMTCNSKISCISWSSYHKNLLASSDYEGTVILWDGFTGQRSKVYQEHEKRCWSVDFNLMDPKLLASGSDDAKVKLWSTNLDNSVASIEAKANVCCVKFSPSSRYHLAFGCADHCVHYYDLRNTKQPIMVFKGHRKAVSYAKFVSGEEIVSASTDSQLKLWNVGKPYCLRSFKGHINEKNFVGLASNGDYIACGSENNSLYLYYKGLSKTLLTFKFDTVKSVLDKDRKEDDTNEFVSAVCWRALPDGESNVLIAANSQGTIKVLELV

stabilization of COP1 (Western Blot) (COP1) | LogD @ pH 7.4 [1] | Mean % remaining at 2 hrs in human Plasma (Plasma stability assay) [%] | % QH (Well stirred model) [2] [%] | logD [1] | SMILES | Fold change (ATGL)
stabilize the COP1 | 2.78 | 26.18 | 56.74 |  | COCCn1c(=O)c2cc(NC(=O)Nc3cccc(C(C)=O)c3)ccc2n(CCN2CCCCC2)c1=O [Compound 62, 1-(3-acetylphenyl)-3-(3-(2-methoxyethyl)-2,4-dioxo-1-(2-(piperidin-1-yl)ethyl)-1,2,3,4-tetrahydroquinazolin-6-yl)urea] | 1.55
stabilize the COP1 | 2.17 | 97.40 | 7.60 |  | COCCn1c(=O)[nH]c2ccc(NC(=O)Nc3cccc(C(C)=O)c3)cc2c1=O [Compound 5, 1-(3-acetylphenyl)-3-(3-(2-methoxyethyl)-2,4-dioxo-1,2,3,4-tetrahydroquinazolin-6-yl)urea] | 1.44
stabilize the COP1 |  | 51.74 | 59.60 | 0.97 | COCCn1c(=O)c2cc(NC(=O)Nc3cccc(C(C)=O)c3)ccc2n(CCCN2CCOCC2)c1=O [Compound 94, 1-(3-acetylphenyl)-3-(3-(2-methoxyethyl)-1-(3-morpholinopropyl)-2,4-dioxo-1,2,3,4-tetrahydroquinazolin-6-yl)urea] | 0.84
